Source: ChEMBL document CHEMBL4402592, “Targeting Endoplasmic Reticulum α-Glucosidase I with a Single-Dose Iminosugar Treatment Protects against Lethal Influenza and Dengue Virus Infections” (J Med Chem, 2020)
Activity calls are given as the source filed them. The rule behind the calls is not given here.

Tests used:
Mus musculus [1] = assay: In vivo inhibition of ERGlu1 in BALB/c mouse assessed as increase in tri-glucosylated FOS level in serum at >250 mg/kg, po administered via gavage as single dose at 8 hrs post-infection measured at 8 hrs post-dose by NP-HPLC analysis; type: functional, organism-based
Mus musculus [2] = assay: In vivo inhibition of ERGlu2 in BALB/c mouse assessed as increase in di-glucosylated FOS level in serum at 100 mg/kg, po administered via gavage starting at 8 hrs post-infection and continuing tid for 5 days and measured at 8 hrs post-final dose by NP-HPLC analysis; type: functional, organism-based
Influenza A virus [3] = assay: Antiviral activity against Influenza A virus (A/Texas/36/1991(H1N1)) infected in BALB/c mouse assessed as animal survival at 100 mg/kg, po administered via gavage starting at 8 hrs post-infection and continuing TID for 5 days (reference value: 0%); type: functional
Influenza A virus [4] = assay: Antiviral activity against Influenza A virus (A/Texas/36/1991(H1N1)) infected in BALB/c mouse assessed as animal survival at 250 mg/kg, po administered via gavage as two doses at 8 and 32 hrs post infection (reference value: 0%); type: functional
Influenza A virus [5] = assay: Antiviral activity against Influenza A virus (A/Texas/36/1991(H1N1)) infected in BALB/c mouse assessed as animal survival at 750 mg/kg, po administered via gavage as three doses at 8, 32 and 56 hrs post infection (reference value: 0%); type: functional
Influenza A virus [6] = assay: Antiviral activity against Influenza A virus (A/Texas/36/1991(H1N1)) infected in BALB/c mouse assessed as animal survival at 500 mg/kg, po administered via gavage as three doses at 8, 32 and 56 hrs post infection (reference value: 0%); type: functional
Influenza A virus [7] = assay: Antiviral activity against Influenza A virus (A/Texas/36/1991(H1N1)) infected in BALB/c mouse assessed as animal survival at 750 mg/kg, po administered via gavage as single dose at 24 hrs post infection (reference value: 0%); type: functional
Influenza A virus [8] = assay: Antiviral activity against Influenza A virus (A/Texas/36/1991(H1N1)) infected in BALB/c mouse assessed as median death time at 100 mg/kg, po administered via gavage starting at 8 hrs post-infection and continuing TID for 5 days; type: functional
Influenza A virus [9] = assay: Antiviral activity against Influenza A virus (A/Texas/36/1991(H1N1)) infected in BALB/c mouse assessed as median death time at 750 mg/kg, po administered via gavage as single dose at 8 hrs post infection; type: functional
Influenza A virus [10] = assay: Antiviral activity against Influenza A virus (A/Texas/36/1991(H1N1)) infected in BALB/c mouse assessed as median death time at 500 mg/kg, po administered via gavage as single dose at 16 hrs post infection (reference value: 8.5 days); type: functional
Influenza A virus [11] = assay: Antiviral activity against Influenza A virus (A/Texas/36/1991(H1N1)) infected in BALB/c mouse assessed as median death time at 750 mg/kg, po administered via gavage as single dose at 24 hrs post infection (reference value: 8.5 days); type: functional
dengue virus type 2 [12] = assay: Antiviral activity against Dengue virus 2 S221 infected in DENV antibody dependent enhancement AG129 mouse model assessed as animal survival at 250 mg/kg, po administered via gavage as two doses at 8 and 24 hrs post infection (reference value: 4%); type: functional
dengue virus type 2 [13] = assay: Antiviral activity against Dengue virus 2 S221 infected in DENV antibody dependent enhancement AG129 mouse model assessed as animal survival at 750 mg/kg, po administered via gavage as two doses at 8 and 24 hrs post infection (reference value: 4%); type: functional
dengue virus type 2 [14] = assay: Antiviral activity against Dengue virus 2 S221 infected in DENV antibody dependent enhancement AG129 mouse model assessed as reduction in viremia at 750 mg/kg, po administered via gavage as single dose at 36 hrs post infection measured within 8 hrs by qRT-PCR analysis; type: functional
dengue virus type 2 [15] = assay: (§1) Antiviral activity against Dengue virus 2 S221 infected in DENV antibody dependent enhancement AG129 mouse model assessed as reduction in IFN-gamma level at 750 mg/kg, po administered via gavage as single dose at 36 hrs post infection measured at 60 hrs post-infection by electrochemiluminescence based method; type: functional, organism-based
dengue virus type 2 [16] = assay: as §1, with “IL-10” for “IFN-gamma”, “two doses” for “single dose”, “36 hrs and 52” for “36”; type: functional, organism-based
dengue virus type 2 [17] = assay: as §1, with “72” for “60”; type: functional, organism-based
dengue virus type 2 [18] = assay: as §1, with “IL-10” for “IFN-gamma”, “two doses” for “single dose”, “36 hrs and 52” for “36”, “72” for “60”; type: functional, organism-based
dengue virus type 2 [19] = assay: as §1, with “KC-GRO” for “IFN-gamma”, “two doses” for “single dose”, “36 hrs and 52” for “36”, “72” for “60”; type: functional, organism-based
Mus musculus [20] = assay: In vivo inhibition of ERGlu1 in BALB/c mouse assessed as increase in tri-glucosylated FOS level in lung at >250 mg/kg, po administered via gavage as single dose at 8 hrs post-infection and measured at 8 hrs post dose by NP-HPLC analysis; type: functional, organism-based
Influenza A virus [21] = assay: Antiviral activity against Influenza A virus (A/PA/10/2010 (H3N2)) infected in BALB/c mouse assessed as increase in animal survival rate at >250 mg/kg, po administered via gavage as single dose at 8 hrs post infection; type: functional, organism-based
Influenza A virus [22] = assay: Antiviral activity against Influenza A virus (A/Texas/36/1991(H1N1)) infected in BALB/c mouse assessed as increase in animal survival rate at >250 mg/kg, po administered via gavage as single dose at 8 hrs post-infection; type: functional, organism-based
dengue virus type 2 [23] = assay: as §1, with “TNF-alpha” for “IFN-gamma”; type: functional, organism-based
dengue virus type 2 [24] = assay: as §1, with “TNF-alpha” for “IFN-gamma”, “52” for “60”; type: functional, organism-based
dengue virus type 2 [25] = assay: as §1, with “TNF-lapha” for “IFN-gamma”, “two doses” for “single dose”, “36 hrs and 52” for “36”, “52” for “60”; type: functional, organism-based
Mus musculus [26] = assay: In vivo inhibition of ERGlu1 in BALB/c mouse assessed as increase in mono-glucosylated FOS level in serum at 100 to 1000 mg/kg, po administered via gavage at 8 hrs post-infection and measured at 8 hrs post-dose by NP-HPLC analysis; type: functional, organism-based
Mus musculus [27] = assay: In vivo inhibition of ERGlu2 in BALB/c mouse assessed as increase in mono-glucosylated FOS level in spleen at 100 mg/kg, po administered via gavage starting at 8 hrs post-infection and continuing tid for 5 days and measured at 8 hrs post-final dose by NP-HPLC analysis; type: functional, organism-based
Mus musculus [28] = assay: In vivo inhibition of ERGlu2 in BALB/c mouse assessed as increase in mono-glucosylated FOS level in spleen at 20 mg/kg, po administered via gavage starting at 8 hrs post-infection and continuing tid for 5 days and measured at 8 hrs post-final dose by NP-HPLC analysis; type: functional, organism-based

COCCCCCCCCCN1C[C@H](O)[C@@H](O)[C@H](O)[C@H]1CO.Cl
inhibition (Mus musculus [1]): Active | inhibition (Mus musculus [2]): Active | survival at 100 mg/kg (Influenza A virus [3]): 90% | survival at 250 mg/kg (Influenza A virus [4]): 60% | survival at 750 mg/kg (Influenza A virus [5]): 100% | survival at 500 mg/kg (Influenza A virus [6]): 100% | survival at 750 mg/kg (Influenza A virus [7]): 30% | Time (Influenza A virus [8]): >14 days | Time (Influenza A virus [9]): >14 days | Time (Influenza A virus [10]): 12 days | Time (Influenza A virus [11]): 10 days | survival at 250 mg/kg (dengue virus type 2 [12]): 86% | survival at 750 mg/kg (dengue virus type 2 [13]): 94% | log(activity) (dengue virus type 2 [14]): >1 | Activity (dengue virus type 2 [15]): Active | Activity (dengue virus type 2 [16]): Active | Activity (dengue virus type 2 [17]): Active | Activity (dengue virus type 2 [18]): Active | Activity (dengue virus type 2 [19]): Active | inhibition (Mus musculus [20]): Active | Activity (Influenza A virus [21]): Active | Activity (Influenza A virus [22]): Active | Activity (dengue virus type 2 [23]): Active | Activity (dengue virus type 2 [24]): Active | Activity (dengue virus type 2 [25]): Active | inhibition (Mus musculus [26]): Active | inhibition (Mus musculus [27]): Active | inhibition (Mus musculus [28]): Active
